Data reported in patent US8735444B2, “Fluorinated rhodamines as photostable fluorescent dyes for labelling and imaging techniques” (Max-Planck-Gesellschaft zur Foerderung der Wissenschaften …, priority 2009, dated 2014).
Marks after values point to notes of the source that are not given here.

What was measured:
[1] = Spectral properties of the fluorinated rhodamines (absorption, emission, quantum yield, lifetime); format: physicochemical
Source text: Extinction coefficients (of the long wavelength maximum) which are lower than ca. 8×10^4 M^−1 cm^−1 indicate the presence of the closed non-fluorescent form.

[2] = Ground state depletion (GSDIM) pump-probe measurements in PVA matrix; format: physicochemical; details: for λem / λex: PVA matrix table; for Γfl, remaining fluorescence after 5 measurement cycles / Rfl, t=0, residual fluorescence after the pump-pulse: PVA matrix; for Γfl, remaining fluorescence after 5 measurement cycles: at one spot with the given power density; for Rfl, t=0, residual fluorescence after the pump-pulse: pump-pulse power density per dye 14-110 kW/cm^2
Source text: In this method, “off” and “on” switching of the fluorescence is achieved by transiently shelving the fluorophores into a meta-stable dark state. Upon the return of only a few isolated single molecules to the fluorescent singlet state, positions of these single light emitting spots can be imaged on a camera and localized with high precision. Upon repeating this procedure and acquiring many pictures, a super-resolution image can be reconstructed from the localized positions. A prerequisite of this method is that >70% of the ensemble of the applied fluorescent dyes can be shelved into a dark state at a time (to ensure the detection of isolated fluorescent spots at a time in a densely labeled sample) and that the fluorophores are bright enough, i.e., that they emit enough photons while being in the singlet on-state (to ensure high precision of localization).
Switching off of the laser leads to a recovery of the fluorescence ensemble within a characteristic recovery time of 150-450 ms (Table 5), indicating the shelving into a metastable dark state. The measurements were performed in a pump-probe mode, i.e., the residual level of fluorescence was probed with I<100 W/cm^2 for 0.5 ms after strong irradiation for 10 ms with the given laser intensity in Table 5.
Furthermore, recovery of the fluorescence can be accelerated by addition of UV light, which leads to an optically-induced depopulation of the dark states. Already 2-3 kW/cm^2 of 375 nm light recovers the fluorescence within an irradiation period of 0.5 ms. […] The accelerated recovery is important for samples with low density of labels, where the addition of UV light and thus acceleration of the return from a dark state helps to accelerate image acquisition. Photostabilities of the studied fluorescent dyes under the GSDIM conditions are different: 15-50 pump-probe cycles with a pump intensity of 14-110 kW/cm^2 bleach 30-95% of the whole ensemble.

[3] = system: living mammalian cells (PtK2); assay: Membrane-permeation experiments in living cells, epifluorescence microscope; format: cell-based; details: 15 minutes
Procedure: FIG. 9. Membrane-permeation experiments of the presented dyes. Living mammalian cells (PtK2) were incubated for 15 minutes with a 50 μg dye/ml solution. The subcellular localization of the dye was imaged in an epifluorescence microscope. A: 46-H—CH2 CF3—H—H (16); B: 42-COOH (15); C: 23; D: 37-Me-Me-H (27); E: 42-H (14)-methylester; F: 33-H—H (18).
The most important prerequisite for fluorophores used in these labeling strategies is that sufficient amounts of it need to pass cellular membrane(s) to reach the target protein. In order to asses the permeability of the cell membrane to the fluorescent dyes described in the presented invention, living mammalian cells (PtK2) previously grown overnight on cover slips, were first subjected to either 500 μg dye/ml or 50 μg dye/ml in growth medium for 15 minutes. (The amount of dye used for labeling of SNAP-fusion proteins is below 5 μg dye/ml.) Then, the cells were washed with growth medium (without dye) for 15 minutes, and imaged using an epifluorescence microscope.

[4] = Photoresistance in aqueous solutions irradiated with 488 nm light (3 W/cm^2); format: physicochemical; details: for change in emission on irradiation: colored water solutions, several hours, 488 nm line of an Argon laser
Source text: The compounds also display an outstanding photostability when irradiated for a prolonged time. […] The initial absorption at the irradiation wavelength was the same for all solutions. […] After two hours of irradiation, compounds 14 and 15 retain more than 50% of the initial emission intensity and compound 14a has about 90% of the initial signal left.
FIG. 2. Photoresistance of selected compounds (14-17, 14a, and 16a in Table 2), and some commercially available fluorophores with the similar spectral properties (Alexa Fluor 488®, Rhodamine Green®, Oregon Green 488®, and Fluorescein) in aqueous solutions irradiated with 488 nm light (3 W/cm^2)

[5] = cited from earlier work; for Photobleaching quantum yields: in water, low light intensities (up to 10^3 W/cm^2)

Row | Compound | ABSORPTION ε ([1]; aqueous buffer at pH 7) | ABSORPTION λMAX ([1]; aqueous buffer at pH 7) | EMISSION λMAX ([1]; aqueous buffer at pH 7) | ΦFL ([1]; aqueous buffer at pH 7) | τFL ([1]; aqueous buffer at pH 7) | λem [2] | λex [2] | Γfl, remaining fluorescence after 5 measurement cycles [2] | Rfl, t=0, residual fluorescence after the pump-pulse [2] | ABSORPTION ε ([1]; methanol) | ABSORPTION λMAX ([1]; methanol) | EMISSION λMAX ([1]; methanol) | initial emission intensity retained ([4]; after two hours of irradiation, 488 nm, 3 W/cm^2) | Structures stained in living cells ([3]; 50 μg dye/ml) | Structures stained in living cells ([3]; 500 μg dye/ml) | change in emission on irradiation [4] | Photobleaching quantum yields [5] | stability relative to rhodamine 6G ([5]; high light intensities (up to 10^7 W/cm^2))
1 | 2,7-Difluoro-N,N′-bis(2,2,2-trifluoroethyl)-4,5-disulforhodamine [Compound 20] | 54000 M⁻¹ cm⁻¹ | 506^a nm | 531^a nm | 0.66 | 3.2 ns | 531 nm | 506 nm | 50% | 25% |  |  |  |  | Dim cytoplasmatic stain with dots | Nearly no stain visible. |  |  | 
2 | Nc1c(F)cc2c(c1S(=O)(=O)O)Oc1c(cc(F)c(N)c1S(=O)(=O)O)C21OC(=O)c2ccccc21 [Compound 12, 2,7-Difluoro-4,5-disulforhodamine] |  | 488 nm | 512 nm | 0.89 | 4.0 ns | 512 nm | 488 nm | 20% | 8% | 42000 M⁻¹ cm⁻¹ | 498 nm | 514 nm |  |  | Nearly no stain visible. |  |  | 
3 | O=C(O)c1ccccc1-c1c2ccc(=NCC(F)(F)F)c(S(=O)(=O)O)c-2oc2c(S(=O)(=O)O)c(NCC(F)(F)F)ccc12 [Compound 16, 4,5-Disulfo-N,N′-bis(2,2,2-trifluoroethyl)rhodamine] |  | 499 nm | 520 nm | 0.88 | 3.8 ns |  |  |  |  | 87000 M⁻¹ cm⁻¹ | 507 nm | 524 nm |  | Dim cytoplasmatic stain with bright | Dim cellular stain with brightly | without any significant changes in their emission |  | 
4 | COC(=O)CCN(C)C(=O)c1ccccc1-c1c2ccc(=NCC(F)(F)F)cc-2oc2cc(NCC(F)(F)F)ccc12 [Compound 44-Me] |  |  |  |  |  | 534 nm | 512 nm | 90% | 8% | 87000 M⁻¹ cm⁻¹ | 512^b nm | 534^b nm |  |  | Cytoplasmatic stain visible. |  |  | 
5 | COC(=O)c1ccccc1-c1c2ccc(N)cc2[o+]c2cc(N)ccc12 [methyl ester of rhodamine 110] |  |  |  |  |  |  |  |  |  |  |  |  |  |  |  |  | 6.6 ×10^−7 | 
6 | CCN=c1cc2oc3cc(NCC)c(C)cc3c(-c3ccccc3C(=O)OCC)c-2cc1C.Cl [rhodamine 6G] |  |  |  |  |  |  |  |  |  |  |  |  |  |  |  |  | 12 ×10^−7 | 
7 | CN(C)c1ccc2c(-c3ccccc3C(=O)[O-])c3ccc(N(C)C)cc3[o+]c2c1 [tetramethyl rhodamine] |  |  |  |  |  |  |  |  |  |  |  |  |  |  |  |  | 3.3 ×10^−7 | 4-5 times

More lines, main results first:

Row | ABSORPTION ε ([1]; aqueous buffer at pH 7) | ABSORPTION λMAX ([1]; aqueous buffer at pH 7) | EMISSION λMAX ([1]; aqueous buffer at pH 7) | ΦFL ([1]; aqueous buffer at pH 7) | τFL ([1]; aqueous buffer at pH 7) | λem [2] | λex [2] | Γfl, remaining fluorescence after 5 measurement cycles [2] | Rfl, t=0, residual fluorescence after the pump-pulse [2] | ABSORPTION ε ([1]; methanol) | ABSORPTION λMAX ([1]; methanol) | EMISSION λMAX ([1]; methanol) | initial emission intensity retained ([4]; after two hours of irradiation, 488 nm, 3 W/cm^2) | Compound | Structures stained in living cells ([3]; 50 μg dye/ml) | Structures stained in living cells ([3]; 500 μg dye/ml) | change in emission on irradiation [4] | Photobleaching quantum yields [5] | stability relative to rhodamine 6G ([5]; high light intensities (up to 10^7 W/cm^2))
8 | 57000 M⁻¹ cm⁻¹ | 510 nm | 531 nm | 0.86 | 4.2 ns |  |  |  |  |  | 512 nm | 534 nm | about 90% | CN(CCC(=O)O)C(=O)c1ccccc1-c1c2ccc(=NCC(F)(F)F)cc-2oc2cc(NCC(F)(F)F)ccc12.Cl [Compound 14a] |  | Mitochondrial stain visible. |  |  | 
9 |  | 512 nm | 530 nm | 0.86 | 4.1 ns | 530 nm | 512 nm | 35% | 25% | 74000 M⁻¹ cm⁻¹ | 517 nm | 536 nm |  | CN(CCC(=O)O)C(=O)c1ccccc1-c1c2ccc(=NCC(F)(F)F)c(S(=O)(=O)O)c-2oc2c(S(=O)(=O)O)c(NCC(F)(F)F)ccc12 [Compound 16a] |  | Cellular stain visible; bright | without any significant changes in their emission |  | 
